Read-outs that look alike come from different tables or passages of the source. Marks after values point to notes of the source that are not given here.
Legend:
[1] = biological target: T1, Klenow fragment lacking exonuclease activity (KF exo−) (Escherichia coli, UniProt P00582, D355A/E357A); type: biochemical, E. coli; settings: for Efficiency (Vmax/KM) / Km / Vmax: 37° C.; for inserted products (KM, Vmax n.d.): 20 minutes, 1500 μM nucleoside 5′-triphosphate, 50 nM enzyme
T1 construct: enzyme solution of the Klenow fragment lacking exonuclease activity (KF exo^−, Amersham USB); purchased Amersham USB
Description: The single nucleotide insertion experiment was performed as described in documents (Non-patent Documents 30-32). A primer (20-mer) labeled with 6-carboxylfluorescein at the 5′-end was annealed with template DNA (35-mer) by heating at 95° C. and slow cooling to 4° C. in 100 mM Tris-HCl (pH 7.5) buffer containing 20 mM MgCl2, 2 mM DTT and 0.1 mg/ml bovine serum albumin. The primer-template duplex solution (10 μM, 5 μl) was mixed with 2 μl enzyme solution of the Klenow fragment lacking exonuclease activity (KF exo^−, Amersham USB). After the mixture was incubated for 2 minutes, each dNTP solution (3 μl) was added to this solution to start the reaction at 37° C. The amount of the enzyme used (5-50 nM), the reaction time (1-35 minutes) and the gradient concentration of each dNTP (0.3-1500 μM) were adjusted to ensure conditions giving 25% or less products. The reaction was stopped with 10 μl stop solution (95% formamide and 20 mM EDTA), and the mixture was immediately heated at 75° C. for 3 minutes. The diluted products were analyzed in an automated ABI377 DNA sequencer equipped with GeneScan software (version 3.0) (Non-patent Document 32). The relative velocity (v0) was calculated by dividing the extent of reaction by the reaction time, and then normalized to the enzyme concentration (20 nM) for the various enzyme concentrations used. Kinetic parameters (KM and Vmax) were obtained from Hanes-Woolf plots of [dNTP]/v0 against [dNTP].
Each parameter was averaged from 3 to 8 data sets.

T7 RNA polymerase = T7 RNA polymerase (Escherichia phage T7, UniProt P00573); settings: [α-32P]ATP, natural NTP 1 mM; for Composition of nucleotide incorporated as 5′ neighbor of A: Gp: theoretical [2]
Description: Transcription (20 μl) was accomplished in 40 mM Tris-HCl buffer (pH 8.0) containing 24 mM MgCl2, 2 mM spermidine, 5 mM DTT, 0.01% Triton X-100, 1-3 mM each natural NTP, 0-3 mM Pa′TP, 0-3 mM DsTP, 10 mM GMP, 2 μM template DNA (for 17-mer transcript synthesis) or 0.5 μM template DNA (for tRNA transcript synthesis), and 2.5 units/μl T7 RNA polymerase (TAKARA). […] For nucleotide composition analysis in transcripts (Non-patent Documents 17 and 33), the transcripts were internally labeled with 2 μCi [α-^32P]UTP or [α-^32P]ATP (Amersham). After the transcription, the products were digested with 0.75 units of RNase T2 at 37° C. for 2 hours in 10 μl of 15 mM sodium acetate buffer (pH 4.5). For 17-mer analysis, 0.05 A260 units of E. coli tRNA (Sigma) was added to the digestion reaction solution. The digestion products were analyzed by 2D-TLC (HPTLC plate, 100×100 mm, Merck). The developing solvents used for the first and second dimensions were isobutyric acid-ammonia-water (66:1:33 v/v/v) and isopropyl alcohol-HCl-water (70:15:15 v/v/v or 75:15:10 v/v/v for Pa′ transcripts), respectively. Spots of the labeled nucleotides on the TLC plate were analyzed with a bio-imaging analyzer.
The internally ^32P-labeled transcripts were digested with Rnase T2, and the resulting labeled nucleoside 3′-monophosphates were analyzed by 2D thin-layer chromatography (2D-TLC).

[2] = Entry 1, template temp35Ds-3, Pa 1 mM, theoretical [0]
[3] = Entry 1, template temp35Ds-3, Pa 1 mM, theoretical [1]
[4] = Entry 2, template temp35Ds-3, Pa 3 mM, theoretical [0]
[5] = Entry 2, template temp35Ds-3, Pa 3 mM, theoretical [1]
[6] = Entry 3, template temp35A-3, Pa 1 mM, theoretical [0]
[7] = Entry 3, template temp35A-3, Pa 1 mM, theoretical [1]
[8] = Entry 4, template temp35A-3, Pa 3 mM, theoretical [0]
[9] = Entry 4, template temp35A-3, Pa 3 mM, theoretical [1]
[10] = Entry 5, template temp35G-3, Pa 1 mM, theoretical [0]
[11] = Entry 5, template temp35G-3, Pa 1 mM, theoretical [1]
[12] = Entry 6, template temp35G-3, Pa 3 mM, theoretical [0]
[13] = Entry 6, template temp35G-3, Pa 3 mM, theoretical [1]

T7 RNA polymerase, sequence (P00573 whole entry): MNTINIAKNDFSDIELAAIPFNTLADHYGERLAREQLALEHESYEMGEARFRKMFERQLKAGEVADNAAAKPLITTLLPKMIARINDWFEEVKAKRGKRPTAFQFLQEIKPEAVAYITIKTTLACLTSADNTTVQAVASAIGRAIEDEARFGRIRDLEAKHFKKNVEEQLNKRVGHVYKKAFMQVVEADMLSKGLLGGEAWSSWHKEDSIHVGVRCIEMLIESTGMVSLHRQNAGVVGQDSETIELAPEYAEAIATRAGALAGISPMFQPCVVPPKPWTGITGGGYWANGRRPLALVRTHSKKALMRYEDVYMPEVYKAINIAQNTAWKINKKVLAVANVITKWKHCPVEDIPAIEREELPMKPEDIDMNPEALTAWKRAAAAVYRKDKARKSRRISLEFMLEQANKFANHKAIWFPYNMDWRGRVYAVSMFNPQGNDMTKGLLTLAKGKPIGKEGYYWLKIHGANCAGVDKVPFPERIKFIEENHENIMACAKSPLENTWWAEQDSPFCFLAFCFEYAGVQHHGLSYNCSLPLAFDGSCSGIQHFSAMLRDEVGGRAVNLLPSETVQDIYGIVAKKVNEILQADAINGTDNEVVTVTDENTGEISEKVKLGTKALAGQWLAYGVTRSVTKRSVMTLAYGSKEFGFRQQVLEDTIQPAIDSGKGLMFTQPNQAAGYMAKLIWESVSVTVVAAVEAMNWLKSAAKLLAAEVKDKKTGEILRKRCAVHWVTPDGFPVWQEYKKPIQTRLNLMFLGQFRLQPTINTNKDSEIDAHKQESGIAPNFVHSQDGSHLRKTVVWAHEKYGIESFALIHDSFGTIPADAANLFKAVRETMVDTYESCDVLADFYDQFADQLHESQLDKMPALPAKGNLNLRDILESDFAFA
T1 sequence (P00582 324-928 D355A/E357A): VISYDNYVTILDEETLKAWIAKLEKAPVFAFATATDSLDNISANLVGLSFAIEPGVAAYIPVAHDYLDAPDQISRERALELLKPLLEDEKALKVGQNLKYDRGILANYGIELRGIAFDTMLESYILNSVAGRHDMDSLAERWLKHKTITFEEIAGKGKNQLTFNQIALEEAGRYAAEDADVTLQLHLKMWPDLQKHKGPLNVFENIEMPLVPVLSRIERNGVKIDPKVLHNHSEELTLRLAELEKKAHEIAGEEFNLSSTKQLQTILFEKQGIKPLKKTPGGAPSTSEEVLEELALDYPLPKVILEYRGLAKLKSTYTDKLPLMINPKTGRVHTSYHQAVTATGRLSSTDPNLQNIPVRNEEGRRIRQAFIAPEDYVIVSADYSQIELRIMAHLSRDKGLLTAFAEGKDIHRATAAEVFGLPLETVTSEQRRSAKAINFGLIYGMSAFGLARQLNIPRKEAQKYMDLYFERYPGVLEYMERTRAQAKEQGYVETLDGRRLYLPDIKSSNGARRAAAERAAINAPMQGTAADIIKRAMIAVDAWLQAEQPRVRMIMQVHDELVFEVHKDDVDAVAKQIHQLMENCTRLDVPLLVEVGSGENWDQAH

## O=Cc1cccn1[C@H]1C[C@H](O)[C@@H](COP(=O)(O)OP(=O)(O)OP(=O)(O)O)O1 [dPaTP]
[1]; template (N) = A, temp35N-1
  Efficiency (Vmax/KM): 5.2 × 10^4 % min^−1M^−1
  Km: 330 µM
  Vmax: 17 % min^−1
[1]; template (N) = C, temp35N-1
  inserted products (KM, Vmax n.d.): n.d. (Minimal inserted products (<2%) were detected after incubation for 20 minutes with 1500 μM nucleoside 5′-triphosphate and 50 nM enzyme.)
[1]; template (N) = Ds, temp35N-1
  Efficiency (Vmax/KM): 6.2 × 10^4 % min^−1M^−1
  Km: 340 µM
  Vmax: 21 % min^−1
[1]; template (N) = G, temp35N-1
  Efficiency (Vmax/KM): 4.4 × 10^2 % min^−1M^−1
  Km: 140 µM
  Vmax: 0.061 % min^−1
[1]; template (N) = Pa, temp35N-2
  Efficiency (Vmax/KM): 1.5 × 10^3 % min^−1M^−1
  Km: 380 µM
  Vmax: 0.56 % min^−1
[1]; template (N) = T, temp35N-1
  Efficiency (Vmax/KM): 3.1 × 10^2 % min^−1M^−1
  Km: 170 µM
  Vmax: 0.053 % min^−1

## Nc1nc2c(ncn2[C@H]2C[C@H](O)[C@@H](COP(=O)(O)OP(=O)(O)OP(=O)(O)O)O2)c(=O)[nH]1 [dGTP, reference compound]
[1]; template (N) = C, temp35N-2
  Efficiency (Vmax/KM): 7.0 × 10^6 % min^−1M^−1
  Km: 2.3 µM
  Vmax: 16 % min^−1
[1]; template (N) = Ds, temp35N-1
  inserted products (KM, Vmax n.d.): n.d.^c (Minimal inserted products (<2%) were detected after incubation for 20 minutes with 1500 μM nucleoside 5′-triphosphate and 50 nM enzyme.)
[1]; template (N) = Pa, temp35N-2
  Efficiency (Vmax/KM): 8.8 × 10^2 % min^−1M^−1
  Km: 480 µM
  Vmax: 0.42 % min^−1
[1]; template (N) = Pa′, temp35N-2
  Efficiency (Vmax/KM): 5.5 × 10^2 % min^−1M^−1
  Km: 800 µM
  Vmax: 0.44 % min^−1
[1]; template (N) = T, temp35N-2
  Efficiency (Vmax/KM): 2.9 × 10^3 % min^−1M^−1
  Km: 420 µM
  Vmax: 12 % min^−1

## Cc1cn([C@H]2C[C@H](O)[C@@H](COP(=O)(O)OP(=O)(O)OP(=O)(O)O)O2)c(=O)[nH]c1=O [dTTP, reference compound]
[1]; template (N) = A, temp35N-1
  Efficiency (Vmax/KM): 4.0 × 10^6 % min^−1M^−1
  Km: 0.7 µM
  Vmax: 2.8 % min^−1
[1]; template (N) = Ds, temp35N-1
  Efficiency (Vmax/KM): 1.9 × 10^3 % min^−1M^−1
  Km: 220 µM
  Vmax: 0.41 % min^−1
[1]; template (N) = G, temp35N-1
  Efficiency (Vmax/KM): 2.1 × 10^3 % min^−1M^−1
  Km: 140 µM
  Vmax: 0.29 % min^−1
[1]; template (N) = Pa, temp35N-2
  Efficiency (Vmax/KM): 1.1 × 10^2 % min^−1M^−1
  Km: 880 µM
  Vmax: 0.097 % min^−1
[1]; template (N) = Pa′, temp35N-2
  Efficiency (Vmax/KM): 1.0 × 10^2 % min^−1M^−1
  Km: 1400 µM
  Vmax: 0.14 % min^−1

## Nc1ccn([C@H]2C[C@H](O)[C@@H](COP(=O)(O)OP(=O)(O)OP(=O)(O)O)O2)c(=O)n1 [dCTP, reference compound]
[1]; template (N) = A, temp35N-1
  Efficiency (Vmax/KM): 1.8 × 10^3 % min^−1M^−1
  Km: 1200 µM
  Vmax: 2.2 % min^−1
[1]; template (N) = Ds, temp35N-1
  Efficiency (Vmax/KM): 8.3 × 10^2 % min^−1M^−1
  Km: 410 µM
  Vmax: 0.34 % min^−1
[1]; template (N) = G, temp35N-1
  Efficiency (Vmax/KM): 2.3 × 10^7 % min^−1M^−1
  Km: 0.24 µM
  Vmax: 5.5 % min^−1
[1]; template (N) = Pa, temp35N-2
  inserted products (KM, Vmax n.d.): n.d.^c (Minimal inserted products (<2%) were detected after incubation for 20 minutes with 1500 μM nucleoside 5′-triphosphate and 50 nM enzyme.)
[1]; template (N) = Pa′, temp35N-2
  inserted products (KM, Vmax n.d.): n.d. (Minimal inserted products (<2%) were detected after incubation for 20 minutes with 1500 μM nucleoside 5′-triphosphate and 50 nM enzyme.)

## CC#Cc1cc(C=O)n([C@H]2C[C@H](O)[C@@H](COP(=O)(O)OP(=O)(O)OP(=O)(O)O)O2)c1 [dPa′TP]
[1]; KF exo−, template Ds
  efficiency of incorporation opposite Ds in the template relative to that of dPaTP: 3.9 fold
[1]; template (N) = A, temp35N-1
  Efficiency (Vmax/KM): 1.8 × 10^5 % min^−1M^−1
  Km: 110 µM
  Vmax: 20 % min^−1
[1]; template (N) = C, temp35N-1
  Efficiency (Vmax/KM): 7.4 × 10^2 % min^−1M^−1
  Km: 80 µM
  Vmax: 0.059 % min^−1
[1]; template (N) = Ds, temp35N-1
  Efficiency (Vmax/KM): 2.6 × 10^5 % min^−1M^−1
  Km: 82 µM
  Vmax: 21 % min^−1
[1]; template (N) = G, temp35N-1
  Efficiency (Vmax/KM): 1.6 × 10^3 % min^−1M^−1
  Km: 80 µM
  Vmax: 0.13 % min^−1
[1]; template (N) = Pa′, temp35N-2
  Efficiency (Vmax/KM): 4.1 × 10^4 % min^−1M^−1
  Km: 190 µM
  Vmax: 7.8 % min^−1
[1]; template (N) = T, temp35N-1
  Efficiency (Vmax/KM): 1.6 × 10^3 % min^−1M^−1
  Km: 120 µM
  Vmax: 0.19 % min^−1

## O=Cc1cccn1[C@@H]1O[C@H](COP(=O)(O)OP(=O)(O)OP(=O)(O)O)[C@@H](O)[C@H]1O [PaTP, 1-(β-D-Ribofuranosyl)pyrrole-2-carbaldehyde 5′-triphosphate]
T7 RNA polymerase; [2]
  Composition of nucleotide incorporated as 5′ neighbor of A: Cp: 0.01 [0]
  Composition of nucleotide incorporated as 5′ neighbor of A: Up: 0.02 [0]
T7 RNA polymerase; [3]
  Composition of nucleotide incorporated as 5′ neighbor of A: Ap: 1.03^c [1]^d
  Composition of nucleotide incorporated as 5′ neighbor of A: Np (Pap): 0.97 [1]
T7 RNA polymerase; Entry 1, template temp35Ds-3, Pa 1 mM
  Composition of nucleotide incorporated as 5′ neighbor of A: Gp: 1.97 [2]
T7 RNA polymerase; [4]
  Composition of nucleotide incorporated as 5′ neighbor of A: Cp: 0.01 [0]
  Composition of nucleotide incorporated as 5′ neighbor of A: Up: 0.01 [0]
T7 RNA polymerase; [5]
  Composition of nucleotide incorporated as 5′ neighbor of A: Ap: 1.01 [1]
  Composition of nucleotide incorporated as 5′ neighbor of A: Np (Pap): 1.00 [1]
T7 RNA polymerase; Entry 2, template temp35Ds-3, Pa 3 mM
  Composition of nucleotide incorporated as 5′ neighbor of A: Gp: 1.96 [2]
T7 RNA polymerase; [6]
  Composition of nucleotide incorporated as 5′ neighbor of A: Cp: n.d.^f [0]
  Composition of nucleotide incorporated as 5′ neighbor of A: Np (Pap): n.d. [0]
T7 RNA polymerase; [7]
  Composition of nucleotide incorporated as 5′ neighbor of A: Ap: 0.99 [1]
  Composition of nucleotide incorporated as 5′ neighbor of A: Up: 1.04 [1]
T7 RNA polymerase; Entry 3, template temp35A-3, Pa 1 mM
  Composition of nucleotide incorporated as 5′ neighbor of A: Gp: 1.96 [2]
T7 RNA polymerase; [8]
  Composition of nucleotide incorporated as 5′ neighbor of A: Cp: n.d. [0]
  Composition of nucleotide incorporated as 5′ neighbor of A: Np (Pap): n.d. [0]
T7 RNA polymerase; [9]
  Composition of nucleotide incorporated as 5′ neighbor of A: Ap: 0.99 [1]
  Composition of nucleotide incorporated as 5′ neighbor of A: Up: 1.03 [1]
T7 RNA polymerase; Entry 4, template temp35A-3, Pa 3 mM
  Composition of nucleotide incorporated as 5′ neighbor of A: Gp: 1.97 [2]
T7 RNA polymerase; [10]
  Composition of nucleotide incorporated as 5′ neighbor of A: Np (Pap): n.d. [0]
  Composition of nucleotide incorporated as 5′ neighbor of A: Up: 0.01 [0]
T7 RNA polymerase; [11]
  Composition of nucleotide incorporated as 5′ neighbor of A: Ap: 1.02 [1]
  Composition of nucleotide incorporated as 5′ neighbor of A: Cp: 1.01 [1]
T7 RNA polymerase; Entry 5, template temp35G-3, Pa 1 mM
  Composition of nucleotide incorporated as 5′ neighbor of A: Gp: 1.96 [2]
T7 RNA polymerase; [12]
  Composition of nucleotide incorporated as 5′ neighbor of A: Np (Pap): n.d. [0]
  Composition of nucleotide incorporated as 5′ neighbor of A: Up: 0.01 [0]
T7 RNA polymerase; [13]
  Composition of nucleotide incorporated as 5′ neighbor of A: Ap: 1.01 [1]
  Composition of nucleotide incorporated as 5′ neighbor of A: Cp: 1.00 [1]
T7 RNA polymerase; Entry 6, template temp35G-3, Pa 3 mM
  Composition of nucleotide incorporated as 5′ neighbor of A: Gp: 1.98 [2]

## dATP [reference compound]
[1]; template (N) = C, temp35N-2
  Efficiency (Vmax/KM): 4.6 × 10^3 % min^−1M^−1
  Km: 500 µM
  Vmax: 2.3 % min^−1
[1]; template (N) = Ds, temp35N-1
  Efficiency (Vmax/KM): 2.4 × 10^3 % min^−1M^−1
  Km: 150 µM
  Vmax: 0.36 % min^−1
[1]; template (N) = Pa, temp35N-2
  Efficiency (Vmax/KM): 4.3 × 10^4 % min^−1M^−1
  Km: 490 µM
  Vmax: 21 % min^−1
[1]; template (N) = Pa′, temp35N-2
  Efficiency (Vmax/KM): 3.7 × 10^4 % min^−1M^−1
  Km: 570 µM
  Vmax: 21 % min^−1
[1]; template (N) = T, temp35N-2
  Efficiency (Vmax/KM): 4.1 × 10^6 % min^−1M^−1
  Km: 0.81 µM
  Vmax: 3.3 % min^−1
